Results as given in US20110224221A1, “HEMATOPOIETIC PROTECTION AGAINST IONIZING RADIATION USING SELECTIVE CYCLIN-DEPENDENT KINASE 4/6 INHIBITORS” (priority 2008, published 2011).
Entries after “also recorded” stand apart in the source; their conditions may differ.

Columns and labels:
[1] = Serum/plasma levels after oral gavage; format: in vivo, mice
Description: Mass Spectrometry: Mice were dosed as described and tail vein nick performed to acquire 30 μL periphal blood. Blood was centrifuged to acquire 10 μL plasma, which was mixed with 100 μL ice cold methanol, centrifuged, and mixed with 10 μL of an internal control. Plasma levels were quantified based on standard curves derived in triplicate from known concentrations of wild type C57Bl/6 female mouse plasma unexposed to the measured drug. Quantification was performed using HPLC separation with triple quadrupole mass spectrometry normalizing results to measurement of the internal standard.

[2] = tested on: RB-null melanoma cell line A2058; assay: Clonogenic assay after IR, A2058; format: cell-based, human; conditions: 100 nM, IR 0-9 Gy
Description: Data plotted is the area/cell ratio of PD0332991 treated cells to dimethyl sulfoxide (DMSO) treated cells. Error bars show standard error of the mean.
Clonogenic Assay: The clonogenic assay was performed as previously described (see Franken et al., Nature protocols, 1, 2315-1319 (2006)) with cells plated in a six-well plate at least 6 hours prior to treatment with CDK inhibitor for 24 hours, […] Cells were grown for 16 days, washed, fixed, and stained with crystal violet. Plates were then imaged using an Odyssey infrared scanner (Li-Cor Biosciences, Lincoln, Nebr., United States of America) and quantified using the accompanying software.

[3] = tested on: TyrRAS+Ink4a/Arf−/− melanoma; assay: Tumor growth in Tyr-RAS+Ink4a/Arf−/− melanoma GEMM under daily treatment; format: in vivo, mice
Source text: Animals: All mice were housed in accord with the University of North Carolina at Chapel Hill (UNC-CH) Institutional Animal Care and Use Committee. Young adult (6-12 weeks of age), virgin female C57B1/6 mice were purchased from Jackson Labs (Bar Harbor, Me., United States of America). C3H mice were obtained from Harlan Sprague-Dawley Inc. (Indianapolis, Ind., United States of America). Experiments on tumor-bearing TyrRAS+Ink4a/Arf−/− mice (see Chin et al., Genes & development, 11, 2822-2834 (1997)) were performed in animals fully backcrossed (N>10) to the FVB/n background. Mice were treated as previously described (see Ramsey et al., Cancer Res., 67, 4732-4741 (2007)) with PD 0332991 obtained from Pfizer Inc., (New York, N.Y., United States of America) given by oral gavage at a dose of 150 mg/kg body weight. TyrRAS+Ink4a/Arf−/− mice were serially observed until tumor development. When tumors were about 0.2 cm^2 in size, daily PD 0332991 treatment was begun. The data shown in FIGS. 2B and 2D were normalized to tumor size at the time of therapy initiation. Tumor-bearing mice were euthanized at the indicated times for morbidity, tumor ulceration, or tumor size >1.5 cm in diameter.
See Walker et al., Genes Chromosomes Cancer, 22, 157-163 (1998); and Daniotti et al., Oncogene, 23, 5968-5977 (2004). […]

[4] = tested on: peripheral blood lineages; parameters: species or system mice; conditions: mouse, in vivo
Source text: Data are shown as a moving average with each point representing the mean of three consecutive […]. Error bars are +/− of the standard error of the mean for all data points associated with the moving average. The solid black bar in the lower left of each graph indicates the duration of the PD0332991 treatment. Data from PD0332991 treated mice is shown by the unshaded squares. For comparison, data from mice that had not been treated with PD0332991 is shown in shaded circles.
For TBI experiments, mice were irradiated using a ^137Cs source (AECL Gammacell 40 Irradiator, Atomic Energy of Canada Ltd, Mississauga, Ontario, Canada). Delivered doses were at or near the empirically determined LD90 of 7.5 Gy, consistent with prior studies. See Na Nakorn et al., J. Clin. Invest., 109, 1579-1585 (2002); Herodin et al., Blood, 101, 2609-2616 (2003); Uckun et al., Blood, 75, 638-645 (1990); and Wang et al., Proc. Natl. Acad. Sci., USA, 94, 14590-14595 (1997). Peripheral blood was collected using a tail vein nick for complete blood cells (CBCs) and analyzed with a HemaTrue analyzer (Heska Co., Loveland, Colo., United States of America).
These observations are consistent with the kinetics and degree of myelosuppression seen when tumor bearing mice (see Ramsey et al., Cancer Res., 67, 4732-4741 (2007); and Fry et al., Mol. Cancer Ther., 3, 1427-1438 (2004)) and human patients with malignancies (see O'Dwyer et al., “A Phase I does escalation trial of a daily oral CDK4/6 Inhibitor PD 0332991” in American Society of Clinical Oncology (ASCO, Chicago, Ill., 2007)) are serially treated with PD0332991. The noted decreases might be expected to enhance the adverse effects of radiation therapy. However, unexpectedly as shown herein, hematopoietic cells are protected from adverse effects.

[5] = tested on: TyrRAS+Ink4a/Arf−/− melanoma; assay: Tumor-bearing mice given 7.5 Gy TBI: tumor growth and mortality; format: in vivo
Description: Tumor growth with (open squares) or without (closed diamonds) a single dose of 6-acetyl-8-cyclopentyl-5-methyl-2-(5-piperazin-1-yl-pyridin-2-ylamino)-8H-pyrido-[2,3-d]-pyrimidin-7-one (PD0332991) administered 4 hours prior to 7.5 gray (Gy) total body irradiation (TBI). […] Error bars indicate standard error of the mean.
FIG. 2E is a set of Kaplan-Meyer survival curves showing overall mortality, tumor-specific mortality and mortality to radiation toxicity of tumor bearing mice treated with 7.5 gray (Gy) of total body irradiation (TBI) with (solid line, n=8) or without (dashed line n=11) 6-acetyl-8-cyclopentyl-5-methyl-2-(5-piperazin-1-yl-pyridin-2-ylamino)-8H-pyrido-[2,3-d]-pyrimidin-7-one (PD 0332991) treatment 4 hours prior to ionizing radiation (IR). P-values calculated using the log-rank test.
Young adult (6-12 weeks of age), virgin female C57B1/6 mice were purchased from Jackson Labs (Bar Harbor, Me., United States of America). […] Experiments on tumor-bearing TyrRAS+Ink4a/Arf−/− mice (see Chin et al., Genes & development, 11, 2822-2834 (1997)) were performed in animals fully backcrossed (N>10) to the FVB/n background. Mice were treated as previously described (see Ramsey et al., Cancer Res., 67, 4732-4741 (2007)) with PD 0332991 obtained from Pfizer Inc., (New York, N.Y., United States of America) given by oral gavage at a dose of 150 mg/kg body weight. TyrRAS+Ink4a/Arf−/− mice were serially observed until tumor development. When tumors were about 0.2 cm^2 in size, daily PD 0332991 treatment was begun. […] Tumor-bearing mice were euthanized at the indicated times for morbidity, tumor ulceration, or tumor size >1.5 cm in diameter.

pancreatic islet = conditions: same dose and schedule (150 mg/kg daily); cited from earlier work
[6] = tested on: TyrRAS+Ink4a/Arf−/− melanoma; conditions: mouse, in vivo; cited from earlier work
[7] = treatment 4 hours prior to 7.5 Gy TBI

## CC(=O)c1c(C)c2cnc(Nc3ccc(N4CCNCC4)cn3)nc2n(C2CCCC2)c1=O [PD0332991, 6-acetyl-8-cyclopentyl-5-methyl-2-(5-piperazin-1-yl-pyridin-2-ylamino)-8H-pyrido-[2,3-d]-pyrimidin-7-one]
[1]
  persistence of therapeutic serum levels: 10 to 20 h
  time until therapeutic serum levels are achieved: > 30 min
[2]
  clonogenic cell survival after IR (area/cell ratio relative to DMSO): not in CDK4/6-independent cells
[3]; 150 mg/kg daily, in the 8-16 days
  mice that developed new tumors while receiving treatment: two of five
[3]; 150 mg/kg oral gavage daily, tumor-bearing Tyr-RAS+Ink4a/Arf−/− mice
  growth of established tumors: no regression or decrease in tumor growth; also recorded: insensitive
[4]
  time to begin of improvement upon cessation: ≤ 4 days
  treatment time after which decrease became apparent: 8 days
[4]; po, 150 mg/kg
  erythroid, platelet and myeloid lineages: modest decrease
[5]; single dose 4 hours prior to 7.5 Gy TBI
  anti-tumor effect of therapeutic IR: does not decrease that anti-tumor effect of therapeutic radiotherapy
[5]; [7]
  mortality to radiation toxicity: does appear to provide protection from radiation toxicity
  tumor-related mortality: does not appear to increase tumor-related mortality
Pancreatic islet
  proliferation in CDK4/6 dependent normal murine tissues such as the pancreatic islet: abrogated proliferation
[6]
  tolerability of dose and schedule: well tolerated without evident toxicity
